Measurements taken from the NIST ThermoML archive (doi:10.1016/j.jct.2013.01.013).

Assay: xn = mol fraction of the nth substance listed
Conditions: 101 kPa, Liquid; for viscosity: Capillary tube (Ostwald / Ubbelohde) method; for speed of sound: Linear variable-path acoustic interferometer; for mass density: Pycnometric method

C=C(C)C(=O)OC [methyl methacrylate] + CC(=O)N(C)C
Conditions | mass density [kg/m3] | speed of sound [m/s] | viscosity [mPa·s]
288.15 K, x1 = 0.0714 | 946.01 | 1484.2 | 1.103
288.15 K, x1 = 0.144 | 946.49 | 1468.6 | 1.057
288.15 K, x1 = 0.2125 | 946.92 | 1452.9 | 1.016
288.15 K, x1 = 0.2823 | 947.31 | 1435.8 | 0.9751
288.15 K, x1 = 0.3568 | 947.69 | 1416.2 | 0.9339
288.15 K, x1 = 0.4318 | 948.02 | 1394.9 | 0.8939
288.15 K, x1 = 0.5046 | 948.31 | 1372.8 | 0.856
288.15 K, x1 = 0.5769 | 948.54 | 1349.9 | 0.8196
288.15 K, x1 = 0.6512 | 948.73 | 1325.5 | 0.7835
288.15 K, x1 = 0.7205 | 948.88 | 1302.7 | 0.7513
288.15 K, x1 = 0.7845 | 948.97 | 1282.2 | 0.7228
288.15 K, x1 = 0.8558 | 949.03 | 1259.7 | 0.6927
288.15 K, x1 = 0.9281 | 949.07 | 1237.5 | 0.6628
288.15 K, x1 = 1 | 949.1 | 1216.8 | 0.634
293.15 K, x1 = 0.0714 | 941.45 | 1467.3 | 0.9972
293.15 K, x1 = 0.144 | 941.87 | 1452.1 | 0.957
293.15 K, x1 = 0.2125 | 942.23 | 1436.6 | 0.9207
293.15 K, x1 = 0.2823 | 942.55 | 1419.2 | 0.8852
293.15 K, x1 = 0.3568 | 942.84 | 1399.5 | 0.8487
293.15 K, x1 = 0.4318 | 943.08 | 1378.3 | 0.8137
293.15 K, x1 = 0.5046 | 943.28 | 1356.3 | 0.7808
293.15 K, x1 = 0.5769 | 943.43 | 1333.1 | 0.7494
293.15 K, x1 = 0.6512 | 943.52 | 1308.9 | 0.7183
293.15 K, x1 = 0.7205 | 943.58 | 1286.3 | 0.691
293.15 K, x1 = 0.7845 | 943.59 | 1266 | 0.6666
293.15 K, x1 = 0.8558 | 943.54 | 1243.5 | 0.6409
293.15 K, x1 = 0.9281 | 943.46 | 1221.3 | 0.6153
293.15 K, x1 = 1 | 943.37 | 1200.5 | 0.5903
298.15 K, x1 = 0.0714 | 936.89 | 1448.2 | 0.9087
298.15 K, x1 = 0.144 | 937.25 | 1433.9 | 0.8736
298.15 K, x1 = 0.2125 | 937.54 | 1418.5 | 0.8414
298.15 K, x1 = 0.2823 | 937.79 | 1400.8 | 0.8102
298.15 K, x1 = 0.3568 | 937.99 | 1381 | 0.7782
298.15 K, x1 = 0.4318 | 938.14 | 1359.8 | 0.7473
298.15 K, x1 = 0.5046 | 938.25 | 1338 | 0.7186
298.15 K, x1 = 0.5769 | 938.31 | 1315.4 | 0.6915
298.15 K, x1 = 0.6512 | 938.31 | 1291.5 | 0.665
298.15 K, x1 = 0.7205 | 938.28 | 1269.3 | 0.6416
298.15 K, x1 = 0.7845 | 938.21 | 1248.9 | 0.6207
298.15 K, x1 = 0.8558 | 938.05 | 1226.9 | 0.5983
298.15 K, x1 = 0.9281 | 937.85 | 1204.6 | 0.5763
298.15 K, x1 = 1 | 937.63 | 1183.6 | 0.5544
303.15 K, x1 = 0.0714 | 932.33 | 1429.5 | 0.8475
303.15 K, x1 = 0.144 | 932.63 | 1415.5 | 0.8152
303.15 K, x1 = 0.2125 | 932.85 | 1400.7 | 0.7858
303.15 K, x1 = 0.2823 | 933.03 | 1383.5 | 0.7573
303.15 K, x1 = 0.3568 | 933.14 | 1363.9 | 0.7278
303.15 K, x1 = 0.4318 | 933.2 | 1342.9 | 0.6995
303.15 K, x1 = 0.5046 | 933.22 | 1321.2 | 0.6733
303.15 K, x1 = 0.5769 | 933.19 | 1298.9 | 0.649
303.15 K, x1 = 0.6512 | 933.1 | 1275.4 | 0.6253
303.15 K, x1 = 0.7205 | 932.98 | 1253.7 | 0.6042
303.15 K, x1 = 0.7845 | 932.82 | 1233.8 | 0.5853
303.15 K, x1 = 0.8558 | 932.56 | 1211.8 | 0.565
303.15 K, x1 = 0.9281 | 932.24 | 1189.9 | 0.545
303.15 K, x1 = 1 | 931.89 | 1168.5 | 0.5251
308.15 K, x1 = 0.0714 | 927.77 | 1409.8 | 0.789
308.15 K, x1 = 0.144 | 928.01 | 1396.4 | 0.7601
308.15 K, x1 = 0.2125 | 928.16 | 1382.1 | 0.7332
308.15 K, x1 = 0.2823 | 928.26 | 1365.2 | 0.7071
308.15 K, x1 = 0.3568 | 928.29 | 1345.7 | 0.68
308.15 K, x1 = 0.4318 | 928.26 | 1324.8 | 0.654
308.15 K, x1 = 0.5046 | 928.19 | 1303.4 | 0.6305
308.15 K, x1 = 0.5769 | 928.07 | 1281.5 | 0.6082
308.15 K, x1 = 0.6512 | 927.89 | 1258.5 | 0.5867
308.15 K, x1 = 0.7205 | 927.68 | 1237.5 | 0.5678
308.15 K, x1 = 0.7845 | 927.43 | 1217.7 | 0.5507
308.15 K, x1 = 0.8558 | 927.07 | 1196.1 | 0.5325
308.15 K, x1 = 0.9281 | 926.63 | 1174.2 | 0.514
308.15 K, x1 = 1 | 926.15 | 1152.6 | 0.496
313.15 K, x1 = 0.0714 | 923.21 | 1392.2 | 0.743
313.15 K, x1 = 0.144 | 923.38 | 1379.6 | 0.7165
313.15 K, x1 = 0.2125 | 923.46 | 1365.5 | 0.6916
313.15 K, x1 = 0.2823 | 923.49 | 1348.6 | 0.6671
313.15 K, x1 = 0.3568 | 923.44 | 1328.3 | 0.6422
313.15 K, x1 = 0.4318 | 923.32 | 1306.9 | 0.6183
313.15 K, x1 = 0.5046 | 923.16 | 1285.6 | 0.5963
313.15 K, x1 = 0.5769 | 922.95 | 1263.9 | 0.5759
313.15 K, x1 = 0.6512 | 922.68 | 1241.1 | 0.5562
313.15 K, x1 = 0.7205 | 922.38 | 1220.1 | 0.5387
313.15 K, x1 = 0.7845 | 922.04 | 1200.9 | 0.523
313.15 K, x1 = 0.8558 | 921.57 | 1179 | 0.506
313.15 K, x1 = 0.9281 | 921.01 | 1157.2 | 0.4891
313.15 K, x1 = 1 | 920.41 | 1135.4 | 0.4723
318.15 K, x1 = 0.0714 | 918.65 | 1374.5 | 0.7095
318.15 K, x1 = 0.144 | 918.75 | 1362.8 | 0.6842
318.15 K, x1 = 0.2125 | 918.76 | 1348.2 | 0.6607
318.15 K, x1 = 0.2823 | 918.72 | 1330.9 | 0.6374
318.15 K, x1 = 0.3568 | 918.59 | 1310.1 | 0.6135
318.15 K, x1 = 0.4318 | 918.38 | 1288.6 | 0.5905
318.15 K, x1 = 0.5046 | 918.13 | 1267.2 | 0.5693
318.15 K, x1 = 0.5769 | 917.83 | 1245.9 | 0.5497
318.15 K, x1 = 0.6512 | 917.47 | 1223.7 | 0.5307
318.15 K, x1 = 0.7205 | 917.08 | 1202.8 | 0.5141
318.15 K, x1 = 0.7845 | 916.65 | 1184 | 0.4991
318.15 K, x1 = 0.8558 | 916.07 | 1162.4 | 0.4828
318.15 K, x1 = 0.9281 | 915.39 | 1140.2 | 0.4662
318.15 K, x1 = 1 | 914.66 | 1118.3 | 0.4499
